Experimental data reported in ChEMBL document CHEMBL6096697, “Structure-Guided Discovery of Novel N4-(Substituted Thiazol-2-yl)-N2-(4-Substituted phenyl)pyrimidine-2,4-Diamines as Potent CDK2 and CDK9 Dual Inhibitors with High Oral Bioavailability” (J Med Chem, 2025).
Calls of active or inactive are those of the source. The calls are words filed in the database; no cut-off is given here.

Assays:
[1] = Clearance in Sprague-Dawley rat at 10 mg/kg, po measured for 36 hrs by MRM analysis; assay type: ADME, organism-based; conditions: in vivo
HeLa [2] = assay: Induction of cell cycle arrest in human HeLa cells assessed as accumulation at S phase at 1.8 uM incubated for 24 hrs by PI staining based flow cytometry (reference value: 17.84 +/- 1.89 %); assay type: functional
HCT-116 [3] = assay: Induction of apoptosis in human HCT-116 cells assessed as early apoptotic cells at 0.4 uM incubated for 24 hrs by PI staining based flow cytometry (reference value: 0.19 %); assay type: functional
HeLa [4] = assay: Induction of cell cycle arrest in human HeLa cells assessed as accumulation at G2/M phase at 0.9 uM incubated for 24 hrs by PI staining based flow cytometry (reference value: 24.6 +/- 1.11 %); assay type: functional
[5] = target: Cyclin-dependent kinase 2/cyclin A (Homo sapiens) (UniProt P24941+P20248+P78396); assay: Inhibition of CDK2/cyclin A (unknown origin) using […] at 1 uM incubated for 40 mins in presence of ATP by Kinase-Glo assay relative to control; assay type: protein-complex assay
[6] = AUC (0 to infinity) in Sprague-Dawley rat at 10 mg/kg, po measured for 36 hrs by MRM analysis; assay type: ADME, organism-based; conditions: in vivo
[7] = Toxicity in Balb/c-nu nude mouse xenografted with human HCT-116 cells assessed as toxicity in kidney at 35 to 70 mg/kg/day, po treated for 30 days by H and E staining based analysis; assay type: organism-based; conditions: in vivo, 720 h, dose 35-70 mg/kg/day, time 30 day
[8] = Toxicity in Balb/c-nu nude mouse xenografted with human HCT-116 cells assessed as toxicity in heart at 35 to 70 mg/kg/day, po treated for 30 days by H and E staining based analysis; assay type: organism-based; conditions: in vivo, 720 h, dose 35-70 mg/kg/day, time 30 day
HeLa [9] = assay: Induction of apoptosis in human HeLa cells assessed as necrotic cells at 1.8 uM incubated for 24 hrs by PI staining based flow cytometry (reference value: 25.5 %); assay type: functional
HeLa [10] = assay: Induction of cell cycle arrest in human HeLa cells assessed as accumulation at S phase at 0.9 uM incubated for 24 hrs by PI staining based flow cytometry (reference value: 17.84 +/- 1.89 %); assay type: functional
HeLa [11] = assay: Induction of cell cycle arrest in human HeLa cells assessed as accumulation at sub-G1 phase at 1.8 uM incubated for 24 hrs by PI staining based flow cytometry (reference value: 1.89 +/- 0.56 %); assay type: functional
HCT-116 [12] = assay: Cytotoxicity against human HCT-116 cells assessed as cell growth inhibition incubated for 48 hrs by MTT assay; assay type: functional, cell-based; conditions: HCT-116, 48 h
HCT-116 [13] = assay: Induction of cell cycle arrest at G2/M phase in human HCT-116 cells assessed as decrease in cyclin B1 level at 0.4 uM by Western blot analysis; assay type: functional, cell-based; conditions: time <= 48.0 hrs
HCT-116 [14] = assay: Induction of apoptosis in human HCT-116 cells assessed as increase in p53 level upto 0.8 uM incubated for 24 hrs by Western blot analysis; assay type: functional, cell-based
[15] = Selectivity index, ratio of IC50 for CDK1/cyclin B (unknown origin) using […] to IC50 for CDK2/cyclin A (unknown origin) using […]
HeLa [16] = assay: Induction of cell cycle arrest at G2/M phase in human HeLa cells assessed as decrease in p-Cdc2 level at 1.8 uM by Western blot analysis; assay type: functional, cell-based; conditions: time <= 48.0 hrs
HeLa [17] = assay: Induction of cell cycle arrest at G2/M phase in human HeLa cells assessed as decrease in cyclin B1 level incubated for 48 hrs by Western blot analysis; assay type: functional, cell-based; conditions: dose <= 3.6 µM
HeLa [18] = assay: Induction of apoptosis in human HeLa cells assessed as increase in cleaved PARP level upto 3.6 uM incubated for 24 hrs by Western blot analysis; assay type: functional, cell-based
[19] = Apparent volume of distribution in Sprague-Dawley rat at 10 mg/kg, po measured for 36 hrs by MRM analysis; assay type: ADME, organism-based; conditions: in vivo
HCT-116 [20] = assay: Induction of cell cycle arrest in human HCT-116 cells assessed as accumulation at sub-G1 phase at 0.8 uM incubated for 24 hrs by PI staining based flow cytometry (reference value: 2.45 +/- 0.49 %); assay type: functional
[21] = Tmax in Sprague-Dawley rat at 2 mg/kg, iv measured for 36 hrs by MRM analysis; assay type: ADME, organism-based; conditions: in vivo
HeLa [22] = assay: Induction of cell cycle arrest in human HeLa cells assessed as accumulation at G1/G0 phase at 3.6 uM incubated for 24 hrs by PI staining based flow cytometry (reference value: 57.63 +/- 1.7 %); assay type: functional
MCF7 = assay: Antiproliferative activity against human MCF7 cells assessed as cell growth inhibition incubated for 48 hrs by MTT assay; assay type: functional, cell-based; conditions: MCF7, 48 h
[23] = target: Cyclin-dependent kinase 9 (Homo sapiens) (UniProt P50750); assay: Inhibition of CDK9 in human HCT-116 cells assessed as reduction in Rpb1 phosphorylation at Ser2/5 incubated for 24 hr s by Western blot analysis; assay type: cell-based; conditions: dose <= 0.8 µM
HeLa [24] = assay: Induction of apoptosis in human HeLa cells assessed as early apoptotic cells at 1.8 uM incubated for 24 hrs by PI staining based flow cytometry (reference value: 0.8 %); assay type: functional
[25] = MRT (0 to infinity) in Sprague-Dawley rat at 10 mg/kg, po measured for 36 hrs by MRM analysis; assay type: ADME, organism-based; conditions: in vivo
[26] = AUC (0 to t) in Sprague-Dawley rat at 10 mg/kg, po measured for 36 hrs by MRM analysis; assay type: ADME, organism-based; conditions: in vivo
HCT-116 [27] = assay: Induction of cell cycle arrest at G2/M phase in human HCT-116 cells assessed as decrease in p-Cdc2 level incubated for 48 hrs by Western blot analysis; assay type: functional, cell-based; conditions: dose <= 0.8 µM
HeLa [28] = assay: Induction of cell cycle arrest in human HeLa cells assessed as accumulation at sub-G1 phase at 3.6 uM incubated for 24 hrs by PI staining based flow cytometry (reference value: 1.89 +/- 0.56 %); assay type: functional
HCT-116 [29] = assay: Induction of cell cycle arrest in human HCT-116 cells assessed as accumulation at S phase at 0.4 uM incubated for 24 hrs by PI staining based flow cytometry (reference value: 20.82 +/- 1.24 %); assay type: functional
HeLa [30] = assay: Induction of cell cycle arrest in human HeLa cells assessed as accumulation at G2/M phase at 1.8 uM incubated for 24 hrs by PI staining based flow cytometry (reference value: 24.6 +/- 1.11 %); assay type: functional
[31] = Oral bioavailability in Sprague-Dawley rat at 10 mg/kg measured for 36 hrs by MRM analysis; assay type: ADME, organism-based; conditions: in vivo
HeLa [32] = assay: Induction of apoptosis in human HeLa cells assessed as late apoptotic cells at 0.9 uM incubated for 24 hrs by PI staining based flow cytometry (reference value: 3.85 %); assay type: functional
[33] = target: Cyclin-dependent kinase 2/cyclin A (Homo sapiens, UniProt P24941); assay: Inhibition of CDK2/cyclin A (unknown origin) using […] incubated for 40 mins in presence of ATP by Kinase-Glo assay; assay type: protein-complex assay
A2780 = assay: Antiproliferative activity against human A2780 cells assessed as cell growth inhibition incubated for 48 hrs by MTT assay; assay type: functional, cell-based; conditions: A2780, 48 h

Sequence of Cyclin-dependent kinase 9 (Homo sapiens) (P50750 whole entry): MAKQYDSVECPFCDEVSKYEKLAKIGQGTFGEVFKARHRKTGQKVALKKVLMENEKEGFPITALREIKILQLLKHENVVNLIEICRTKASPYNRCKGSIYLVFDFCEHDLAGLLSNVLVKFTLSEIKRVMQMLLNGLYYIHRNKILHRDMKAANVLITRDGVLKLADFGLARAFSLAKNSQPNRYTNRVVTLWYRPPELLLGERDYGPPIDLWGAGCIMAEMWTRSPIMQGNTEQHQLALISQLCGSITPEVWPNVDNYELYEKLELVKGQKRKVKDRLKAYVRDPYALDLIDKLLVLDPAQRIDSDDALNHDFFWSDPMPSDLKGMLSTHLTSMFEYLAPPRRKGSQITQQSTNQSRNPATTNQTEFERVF

SMILES: Cc1cnc(Nc2ccc(S(N)(=O)=O)cc2)nc1Nc1nccs1
- CL/F [1]: 1180 mL/min/kg
- Activity (HeLa [2]): 16.79%
- Activity (HCT-116 [3]): 17.9%
- Activity (HeLa [4]): 26.41%
- inhibition [5]: 99.5%
- AUC(0-inf) [6]: 146 ng·h/mL
- Activity [7]: Non-toxic
- Activity [8]: Non-toxic
- Activity (HeLa [9]): 0.22%
- Activity (HeLa [10]): 21.67%
- Activity (HeLa [11]): 1.28%
- IC50 (HCT-116 [12]): 462 nM
- Activity (HCT-116 [13]): Time-dependent-effect
- Activity (HCT-116 [14]): Active
- Ratio IC50 [15]: 13
- Activity (HeLa [16]): Time-dependent-effect
- Activity (HeLa [17]): Dose-dependent-effect
- Activity (HeLa [18]): Active
- Vz [19]: 398.7 L/kg
- Activity (HCT-116 [20]): 1.71%
- Tmax [21]: 12 min
- Activity (HeLa [22]): 39.16%
- IC50 (MCF7): 3.64 µM
- inhibition [23]: Dose-dependent-effect
- Activity (HeLa [24]): 62.6%
- MRT inf [25]: 7 h
- AUC(0-t) at 36 h [26]: 143 ng·h/mL
- Activity (HCT-116 [27]): Dose-dependent-effect
- Activity (HeLa [28]): 19.5%
- Activity (HCT-116 [29]): 22.25%
- Activity (HeLa [30]): 30.58%
- bioavailability [31]: 86.7%
- Activity (HeLa [32]): 5%
- IC50 [33]: 4 nM
- IC50 (A2780): 22.2 µM
